This is an account of results in US20050090480A1, “Use of selected amino acid-zinc complexes as anti-malarials” (Council of Scientific & Industrial Research, priority 2003, published 2005).

For test [1], the system named is chloroquine-resistant (W2Mef) strain of P. falciparum. The method, then:
The W2Mef strain was used for these experiments. […] The following was the protocol for present experiment.
In the present study, Chloroquine-sensitive (3D7) strain and chloroquine-resistant (W2Mef) strain were used. The cultures were maintained in vitro using culture media consisting of standard RPMI-1640 supplemented with 10% heat inactivated Human Type O^+ Serum, 3.6% NaHCO3 at a hematocrit of 4%. All the assays were carried out in 96 well, flat bottom microtitre plates. For the synchronization of cultures, 5% sorbitol was used. The growth of the parasite was measured with incorporation of Hypoxanthine. A 200 μl volume of the culture parasite was added to each well initially. Different antimalarial compounds at varied concentrations were added to the wells. All the compounds were tested on both chloroquine-sensitive and chloroquine resistant strains. The plates were then placed in an airtight chamber and flushed with the gas mixture (5% CO2, 5% O2 and 90% N2). The plates were finally stored in an incubator at 37° C. for 24 hours.
At the end of the incubation period, 5 μl of diluted ^3H-Hypoxanthine—to a final concentration of 1 μCi—was added to each well. The plates were then returned to the airtight chamber and then flushed with the above gas mixture and incubated for an additional 24 hours. The plates were then stored at −70° C. until required for detection of incorporated radioactivity. When necessary, the plates were thawed and the cells were harvested onto filter-mats. These filter-mats were then dried and sealed.

Another test has as its system P. berghei. To be noted: about 1 mg to 50 mg/kg.
A further test relates to P. falciparum. The experiment in a line: P. falciparum in vitro culture, parasitemia by Giemsa stained smear after 48 hrs. The format is cell-based, Plasmodium falciparum. The settings on record: for inhibition of growth of P. falciparum: 10 μM concentration, 48 hrs incubation at 37° C.
The test system of another test is W2Mef. The settings on record: FIG. 8.
A further test concerns Plasmodium yeoeli. The source says: For these experiments, the mouse malaria parasite Plasmodium yeoeli was used as this strain is considered to be closer to human parasite, P. falciparum. Groups of eight mice each were infected with 10^6 parasites/mouse through an intra-peritoneal injection. […] The drug was given once a day for a total period of six days. The mice were then left alone for an additional period of three days, after which the number of survivors were counted (i.e. at […] after infection). The results are shown here in FIG. 5. Group 1 represents a control group of uninfected mice, with no drug given. Group 3 represents the group of infected mice, again with no drug given (i.e. vehicle only).

Test [2] relates to 3D7 strain of P. falciparum. To be noted: light microscope (FIG. 3). The method, then:
In this experiment, slides were prepared, stained with Giemsa and examined under a light microscope. Representative pictures are show in FIG. 3.

Description for P. berghei: BALB/c mice (4-6 weeks old) were infected with 10^5 P. berghei parasites/mouse. […] After four days of infection, various concentrations of compound, at the doses of 10 mg/kg (Group 2) and 20 mg/kg (Group 3) body weight was injected to the mice. The control group (Group 1) indicates the group of mice infected with the parasite, but without any drug (i.e. vehicle only). Group 4 represents a group of infected mice treated with Pyrimethamine (at 20 mg/kg body weight) using an identical treatment regimen. Each group contained ten mice and the parasitemia levels—obtained from blood smears—are given as a percentage of that obtained in untreated mice (FIG. 4).

For the molecule `CCN(CC)CCCC(C)Nc1ccnc2cc(Cl)ccc12` (centres unmarked) [chloroquine, Chloroquine, reference compound], the “increase in the IC50 value for chloroquine, W2Mef compared with 3D7 strain” value in test [1] (FIG. 6) is “near sevenfold increase”.
In the case of Zinc complex of L-proline [PIZ2], in the test with P. berghei, the “inhibits growth of P. berghei” value was “about 80%”. For the same molecule, in the test on P. falciparum, the “inhibition of growth of P. falciparum” value was more than 80%. Further, the “inhibits growth of P. facliparum” value in the test on P. falciparum (about 5 μM to 10 μM) is “about 100%”. Besides, the “manner of action on W2Mef” value in the test on W2Mef was “direct killing”. Moreover, in the test on Plasmodium yeoeli (about 1 mg to 50 mg/Kg), the “inhibits growth of P. yeoeli” value is listed as “about 90%”. For the same molecule, in the test with Plasmodium yeoeli (oral 20 mg/kg body weight once a day for six days, counted twelve days after infection), the percentage of survivors is recorded as 88%. For the same molecule, the “effect on the parasite in stained slides” value in test [2] is on record as “significant disintegration of the parasite”. For the same molecule, the “potency against chloroquine-sensitive versus chloroquine-resistant strain” value in test [1] (dose response analysis, 3D7 and W2Mef (FIG. 7)) is “remained identical”. Moreover, in test [1] (preliminary experiments and dose response analysis), the “activity against the chloroquine resistant strain-W2Mef” value is “active”.
For “Zinc complexes of L-histidine [Zinc complex of L-histidine]”, the “inhibition of growth of P. falciparum” value in the test on P. falciparum is on record as approximately 85%.
